Source: patent US9096591B2, “Tetracyclic compounds” (Medivation Technologies, Inc., priority 2007, dated 2015)
Read-outs that look alike come from different tables or passages of the source.

How the values were obtained:
[1] = target: T1, human recombinant histamine H1 receptor (Homo sapiens, UniProt P35367); assay: Histamine H1 radioligand binding ([3H]Pyrilamine); conditions: for inhibition at 0.01 µM: 10 nM (0.01 μM) compound; for inhibition at 0.1 µM: 0.1 μM compound; for inhibition at 0.03 µM: 0.03 μM compound
T1 construct: expressed in transfected cells; host or cells: CHO cells
T1 sequence (P35367 whole entry): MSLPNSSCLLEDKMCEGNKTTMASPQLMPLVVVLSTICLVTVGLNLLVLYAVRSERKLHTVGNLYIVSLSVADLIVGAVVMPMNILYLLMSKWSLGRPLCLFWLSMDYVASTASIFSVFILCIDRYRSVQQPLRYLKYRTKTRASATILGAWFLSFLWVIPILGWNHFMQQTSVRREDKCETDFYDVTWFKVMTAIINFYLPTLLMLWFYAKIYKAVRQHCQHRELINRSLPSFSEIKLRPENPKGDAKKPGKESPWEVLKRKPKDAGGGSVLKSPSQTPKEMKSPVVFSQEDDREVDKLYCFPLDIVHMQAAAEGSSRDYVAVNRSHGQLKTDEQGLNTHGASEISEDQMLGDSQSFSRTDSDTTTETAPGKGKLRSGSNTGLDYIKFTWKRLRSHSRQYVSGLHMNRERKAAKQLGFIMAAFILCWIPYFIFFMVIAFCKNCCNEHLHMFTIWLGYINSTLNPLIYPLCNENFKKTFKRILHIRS
Method in brief: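 CHO-expressed receptor in modified Tris-HCl buffer (50 mM, pH 7.4; 2 mM MgCl2, 100 mM NaCl, 250 mM sucrose); bound ligand measured after filtration and washing.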

[2] = target: T2, human recombinant adrenergic α2A receptor (Homo sapiens, UniProt P08913); assay: Adrenergic α2A radioligand binding ([3H]MK-912); design: Inhibition of ligand binding, Adren. alpha2A: concentration or dose not given beside the values; conditions: for Inhibition of ligand binding, Adren. alpha2A: percent inhibition of specific binding
T2 construct: expressed in transfected cells; host or cells: insect Sf9 cells
T2 sequence (P08913 1-465): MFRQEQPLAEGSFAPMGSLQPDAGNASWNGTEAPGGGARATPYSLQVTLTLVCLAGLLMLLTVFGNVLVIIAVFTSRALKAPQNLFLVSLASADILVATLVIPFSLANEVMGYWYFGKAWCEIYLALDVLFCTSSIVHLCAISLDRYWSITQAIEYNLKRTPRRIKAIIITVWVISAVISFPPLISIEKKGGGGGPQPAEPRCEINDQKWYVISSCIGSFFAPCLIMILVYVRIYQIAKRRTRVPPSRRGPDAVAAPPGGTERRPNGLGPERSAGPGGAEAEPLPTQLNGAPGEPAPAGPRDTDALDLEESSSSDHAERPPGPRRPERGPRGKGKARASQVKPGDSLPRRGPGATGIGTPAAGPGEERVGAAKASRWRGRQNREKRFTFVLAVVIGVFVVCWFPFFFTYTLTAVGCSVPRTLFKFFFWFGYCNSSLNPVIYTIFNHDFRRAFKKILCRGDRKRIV
Description: To evaluate in radioligand binding assays the activity of compounds of the invention, human recombinant adrenergic α2A receptor expressed in insect Sf9 cells (Uhlen S et al. J Pharmacol Exp Ther. 271:1558, 1994) in a modified Tris-HCl buffer (50 mM Tris-HCl, pH 7.4, 12.5 mM MgCl2, 2 mM EDTA) was used. Compounds of invention were incubated with 1 nM [^3H]MK-912 for 60 minutes at 25° C. MK912 is (2S-trans)-1,3,4,5′,6,6′,7,12b-octahydro-1′,3′-dimethyl-spiro[2H-benzofuro[2,3-a]quinolizine-2,4′(1′H)-pyrimidin]-2′(3′H)-one hydrochloride Non-specific binding was estimated in the presence of 10 μM WB-4101 (2-(2,6-Dimethoxyphenoxyethyl)aminomethyl-1,4-benzodioxane hydrochloride). Receptor proteins were filtered and washed, the filters were then counted to determine [^3H]MK-912 specifically bound. […] Biochemical assay results are presented as the percent inhibition of specific binding in Table 6.

[3] = target: T3, Serotonin (5-Hydroxytryptamine) 5-HT7 (Homo sapiens, UniProt P34969); assay: Serotonin 5-HT7 radioligand binding ([3H]LSD); design: Inhibition of ligand binding, Ser. 5-HT7: concentration or dose not given beside the values; conditions: for Inhibition of ligand binding, Ser. 5-HT7: percent inhibition of specific binding
T3 construct: expressed in transfected cells; host or cells: CHO cells
T3 sequence (P34969 whole entry): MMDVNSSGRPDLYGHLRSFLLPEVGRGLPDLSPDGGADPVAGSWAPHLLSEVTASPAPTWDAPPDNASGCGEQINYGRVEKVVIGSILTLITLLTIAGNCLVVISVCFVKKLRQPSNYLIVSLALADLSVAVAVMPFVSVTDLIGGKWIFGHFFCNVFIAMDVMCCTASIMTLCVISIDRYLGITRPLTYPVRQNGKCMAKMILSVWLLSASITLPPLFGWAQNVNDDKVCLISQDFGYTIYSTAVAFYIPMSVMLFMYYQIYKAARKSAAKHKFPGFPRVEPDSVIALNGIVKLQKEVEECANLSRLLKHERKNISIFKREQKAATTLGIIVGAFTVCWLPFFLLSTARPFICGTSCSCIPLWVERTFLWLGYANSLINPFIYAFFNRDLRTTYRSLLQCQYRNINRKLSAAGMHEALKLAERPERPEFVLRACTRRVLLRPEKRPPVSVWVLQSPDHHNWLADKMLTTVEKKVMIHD
Description: Lysergic acid diethylamide (LSD) for 2 hours at 25° C. […] Receptor proteins were filtered and washed, the filters were then counted to determine [^3H]LSD specifically bound. […] Biochemical assay results are presented as the percent inhibition of specific binding in Table 6.

[4] = target: T4, human recombinant serotonin (5-Hydroxytryptamine) 5-HT6 receptor (Homo sapiens, UniProt P50406); assay: Serotonin 5-HT6 radioligand binding ([3H]LSD); design: Inhibition of ligand binding, Ser. 5-HT6: concentration or dose not given beside the values; conditions: for Inhibition of ligand binding, Ser. 5-HT6: percent inhibition of specific binding
T4 construct: expressed in transfected cells; host or cells: human HeLa cells
T4 sequence (P50406 whole entry): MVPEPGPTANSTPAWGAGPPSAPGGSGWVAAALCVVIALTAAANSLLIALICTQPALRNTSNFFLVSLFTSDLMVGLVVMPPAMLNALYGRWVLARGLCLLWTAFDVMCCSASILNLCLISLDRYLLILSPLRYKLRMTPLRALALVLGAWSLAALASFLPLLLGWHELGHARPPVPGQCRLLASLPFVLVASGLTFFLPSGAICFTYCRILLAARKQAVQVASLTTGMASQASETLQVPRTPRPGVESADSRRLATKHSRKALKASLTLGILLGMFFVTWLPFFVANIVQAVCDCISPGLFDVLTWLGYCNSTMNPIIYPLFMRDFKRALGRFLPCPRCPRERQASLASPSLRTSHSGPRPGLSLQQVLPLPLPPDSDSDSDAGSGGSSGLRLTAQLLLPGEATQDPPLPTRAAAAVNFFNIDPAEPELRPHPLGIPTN
Text: Receptor proteins were filtered and washed, the filters were then counted to determine [3H]LSD specifically bound. […] Biochemical assay results are presented as the percent inhibition of specific binding in Table 6.

[5] = 1 μM compound, […] [3H]Pyrilamine, read-out: Histamine Binding H1, percent inhibition of specific binding
[6] = percent inhibition of specific binding, screened at 1 μM, read-out: Inhibition of ligand binding, Hist. H1
[7] = […] [3H]Pyrilamine, read-out: Histamine Binding H1, percent inhibition of specific binding

| Structure (SMILES) | inhibition at 1 µM [1, 5] [%] | inhibition at 1 µM [1, 6] [%] | Inhibition of ligand binding, Adren. alpha2A [2] [%] | Inhibition of ligand binding, Ser. 5-HT7 [3] [%] | Inhibition of ligand binding, Ser. 5-HT6 [4] [%] | inhibition at 0.01 µM [1, 7] [%] | inhibition at 0.1 µM [1, 7] [%] | inhibition at 1 µM ([1]; compounds screened at 1 μM, read-out: Inhibition of ligand binding, Hist. H1 (percent inhibition of specific binding)) [%] | inhibition at 1 µM ([2]; compounds screened at 1 μM, read-out: Inhibition of ligand binding, Adren. alpha2A (percent inhibition of specific binding)) [%] | inhibition at 1 µM ([3]; compounds screened at 1 μM, read-out: Inhibition of ligand binding, Ser. 5-HT7 (percent inhibition of specific binding)) [%] | inhibition at 1 µM ([4]; compounds screened at 1 μM, read-out: Inhibition of ligand binding, Ser. 5-HT6 (percent inhibition of specific binding)) [%] | inhibition at 0.03 µM [1, 7] [%] |
| --- | --- | --- | --- | --- | --- | --- | --- | --- | --- | --- | --- | --- |
| Cc1ccc2c(c1)c1c(n2CCCc2ccccn2)CCN(C)C1 [Compound 233, 2,3,4,5-tetrahydro-2,8-dimethyl-5-(3-(pyridin-2-yl)propyl)-1H-pyrido[4,3-b]indole] | 99 | 99 | 90 | 101 | 95 | – | – | – | – | – | – | – |
| CN1CCc2c(c3cc(I)ccc3n2CCc2ccccc2F)C1 [Compound 89, 5-(2-fluorophenethyl)-2,3,4,5-tetrahydro-8-iodo-2-methyl-1H-pyrido[4,3-b]indole] | 97 | 97 | 98 | 100 | 103 | – | – | – | – | – | – | – |
| Cc1ccc2c(c1)c1c(n2CCc2ccc(Cl)cc2)CCN(C)C1 [Compound 32, 5-(4-chlorophenethyl)-2,3,4,5-tetrahydro-2,8-dimethyl-1H-pyrido[4,3-b]indole] | 101 | 101 | 97 | 101 | 101 | 52 | 87 | – | – | – | – | – |
| CN1CCc2c(c3cc(Cl)ccc3n2CCc2ccccn2)C1 [Compound 30, 8-chloro-2,3,4,5-tetrahydro-2-methyl-5-(2-(pyridin-2-yl)ethyl)-1H-pyrido[4,3-b]indole] | 80 | 80 | 84 | 99 | 90 | – | – | – | – | – | – | – |
| Cc1ccc2c(c1)c1c(n2CCc2nc(-c3ccccc3)cs2)CCN(C)C1 [Compound C1-5] | – | – | – | – | – | – | – | 100 | 92 | 93 | 101 | – |
| Cc1ccc2c(c1)c1c(n2CCc2ccc(F)cc2)CCN(C)C1 [Compound 33, 5-(4-fluorophenethyl)-2,3,4,5-tetrahydro-2,8-dimethyl-1H-pyrido[4,3-b]indole] | 98 | 98 | 98 | 91 | 100 | 46 | 89 | – | – | – | – | – |
| Cc1ccc2c(c1)c1c(n2CCc2ccc(C(=O)O)nc2)CCN(C)C1 [Compound 255] | 71 | 71 | −8 | 11 | 2 | – | – | – | – | – | – | – |
| Cc1ccc(CCn2c3c(c4cc(C(=O)O)ccc42)CNCC3)cn1 [Compound 274, 2,3,4,5-tetrahydro-5-(2-(6-methylpyridin-3-yl)ethyl)-1H-pyrido[4,3-b]indole-8-carboxylic acid] | – | 1 | 7 | −3 | −2 | – | – | – | – | – | – | – |
| CCN1CCc2c(c3cc(C)ccc3n2CCc2ccc(C)nc2)C1 [Compound 31, 2-ethyl-2,3,4,5-tetrahydro-8-methyl-5-(2-(6-methylpyridin-3-yl)ethyl)-1H-pyrido[4,3-b]indole] | 100 | 100 | 66 | 85 | 64 | – | – | – | – | – | – | – |
| CN1CCc2c(c3ccccc3n2CCc2ccncc2)C1 [Compound 10, 2,3,4,5-tetrahydro-2-methyl-5-(2-(pyridin-4-yl)ethyl)-1H-pyrido[4,3-b]indole] | 88 | 88 | 33 | 73 | 32 | – | – | – | – | – | – | – |
| CCN1CCc2c(c3ccccc3n2CCc2ccccc2)C1 [Compound 4, 2-ethyl-2,3,4,5-tetrahydro-5-phenethyl-1H-pyrido[4,3-b]indole] | 93 | 93 | 82 | 88 | 82 | – | 73 | – | – | – | – | 47 |
| Cc1ccc2c(c1)c1c(n2Cc2ccccc2)CCN(C)C1 [Compound 137, 5-benzyl-2,3,4,5-tetrahydro-2,8-dimethyl-1H-pyrido[4,3-b]indole] | 11 | 11 | 15 | 15 | 12 | – | – | – | – | – | – | – |
| Cc1ccc2c(c1)c1c(n2CCc2ccncc2)CCN(C)C1 [Compound 22, 2,3,4,5-tetrahydro-2,8-dimethyl-5-(2-(pyridin-4-yl)ethyl)-1H-pyrido[4,3-b]indole] | 100 | 100 | 72 | 99 | – | 36 | – | – | – | – | – | 63 |
| CN1CCc2c(c3cc(Cl)ccc3n2CC(=O)N2CCS(=O)(=O)CC2)C1 [Compound 295] | – | -3 | 26 | – | −1 | – | – | – | – | – | – | – |
| CN1CCc2c(c3cc(Cl)ccc3n2CC(=O)N2CC[S+]([O-])CC2)C1 [Compound 296, 2-(8-Chloro-2-methyl-1,2,3,4-tetrahydro-pyrido[4,3-b]indol-5-yl)-1-(1-oxo-1l4-thiomorpholin-4-yl)-ethanone] | – | 36 | 1 | – | 3 | – | – | – | – | – | – | – |
| CN1CCc2c(c3cc(Cl)ccc3n2CC(=O)N2CCCC2)C1 [Compound 243, 2-(8-chloro-1,2,3,4-tetrahydro-2-methylpyrido[4,3-b]indol-5-yl)-1-(pyrrolidin-1-yl)ethanone] | 84 | 84 | 3 | – | 12 | – | – | – | – | – | – | – |
